Assay results published in US9815846B2 (Merck Sharp & Dohme Corp., priority 2014, dated 2017).

Biological target: human TrkA receptor (Homo sapiens (Human), UniProt P04629)
Assay: DiscoverX PathHunter TrkA functional assay (NGF-stimulated U2OS cells)
Assay type: cell-based
Settings: U2OS cells expressing human TrkA-PK, Shc1-EA and p75NTR; compound 1 h, then NGF at ~80% of maximal response for 3 h; luminescence
Experimental: TrkA functional activity was measured using a DiscoverX PathHunter assay. In this assay, U2OS cells express the human TrkA receptor as a fusion with the weakly complementing fragment of B-galactosidase, which DiscoverX calls “Prolink (PK)”; additionally, Shcl is fused with a larger fragment, which is called “Enzyme Acceptor (EA)”. Activation of the TrkA receptor, upon NGF addition, results in the kinase domain being phosphorylated, resulting in subsequent recruitment of Shcl-EA protein. That recruitment results in an active B-galactosidase enzyme that is detected by addition of a chemiluminescent substrate. The human p75^NTR protein was also expressed as a co-receptor for NGF.
All reagents were purchased from DiscoverX, except for the receptor agonists (NGF, BDNF, NT3) which were purchased from Peprotech. Cells were expanded and frozen into cryovials, and stored in the vapor phase of liquid nitrogen, and thawed immediately before use. Thawed cells were added to a 384-well plate at 7500 cells/well, and allowed to incubate overnight. Compound at various concentrations was added the following morning and allowed to incubate on cells for 1 h. Then, NGF was added at a concentration sufficient to elicit ˜80% of a maximal response and allowed to incubate for 3 h at ambient temperature. DiscoverX PathHunter detection reagent was then added and the plate was further incubated for 1 h in the dark. The plate was then read via luminescence on the Perkin Elmer Envision.

Chain of human TrkA receptor (P04629 33-796): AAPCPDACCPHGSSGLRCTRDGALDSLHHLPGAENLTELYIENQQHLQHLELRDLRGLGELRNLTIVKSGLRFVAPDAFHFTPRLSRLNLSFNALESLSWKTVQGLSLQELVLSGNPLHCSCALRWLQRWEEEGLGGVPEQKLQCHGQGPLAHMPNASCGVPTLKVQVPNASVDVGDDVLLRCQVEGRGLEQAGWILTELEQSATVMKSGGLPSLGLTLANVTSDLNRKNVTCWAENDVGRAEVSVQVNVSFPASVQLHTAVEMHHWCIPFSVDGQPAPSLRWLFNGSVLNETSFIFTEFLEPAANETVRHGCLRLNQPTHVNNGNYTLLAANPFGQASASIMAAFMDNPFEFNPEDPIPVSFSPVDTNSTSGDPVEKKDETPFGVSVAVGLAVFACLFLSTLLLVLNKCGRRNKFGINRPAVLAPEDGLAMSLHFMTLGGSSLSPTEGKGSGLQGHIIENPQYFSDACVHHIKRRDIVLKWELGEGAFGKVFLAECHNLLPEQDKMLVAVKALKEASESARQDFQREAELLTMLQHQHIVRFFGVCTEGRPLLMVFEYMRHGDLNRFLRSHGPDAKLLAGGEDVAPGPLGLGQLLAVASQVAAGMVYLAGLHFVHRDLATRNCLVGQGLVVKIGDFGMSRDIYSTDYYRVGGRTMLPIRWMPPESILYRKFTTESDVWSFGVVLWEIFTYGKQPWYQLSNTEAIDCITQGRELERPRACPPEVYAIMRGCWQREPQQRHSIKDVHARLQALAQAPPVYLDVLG

SMILES | IC50 [nM]
Cc1cc(C)n(-c2ccc(Cl)c(C(=O)Nc3cnc(C)nc3-c3ccccc3)c2)n1 [Example 9, 2-chloro-5-(3,5-dimethyl-1H-pyrazol-1-yl)-N-(2-methyl-4-phenylpyrimidin-5-yl)benzamide] | 140
O=C(Nc1cc(-c2cccnc2)cnc1-c1ccccc1)c1ccc(C(F)(F)F)cc1 [Example 10, N-(6-phenyl-3,3′-bipyridin-5-yl)-4-(trifluoromethyl)benzamide] | 1600
Cc1cc(-c2ccccc2NC(=O)c2cc(-n3nc(C)cc3C)ccc2Cl)on1 [Example 11, 2-chloro-5-(3,5-dimethyl-1H-pyrazol-1-yl)-N-[2-(3-methylisoxazol-5-yl)phenyl]benzamide] | 7500
Cc1ncc(NC(=O)c2ccc(C(F)(F)F)c(-c3cscn3)c2)c(-c2ccccc2)n1 [Example 12, N-(2-methyl-4-phenylpyrimidin-5-yl)-3-(1,3-thiazol-4-yl)-4-(trifluoromethyl)benzamide] | 36
Cc1cc(C)n(-c2cc(C(=O)Nc3cnc(C)nc3-c3ccccc3)ccc2F)n1 [Example 13, 3-(3,5-dimethyl-1H-pyrazol-1-yl)-4-fluoro-N-(2-methyl-4-phenylpyrimidin-5-yl)benzamide] | 910
Cc1ncc(NC(=O)c2cccc(-n3nccc3C(F)(F)F)c2)c(-c2ccccc2)n1 [Example 14, N-(2-methyl-4-phenylpyrimidin-5-yl)-3-[5-(trifluoromethyl)-1H-pyrazol-1-yl]benzamide] | 590
Cc1ncc(NC(=O)c2ccc(C(F)(F)F)c(-c3ccn(C)n3)c2)c(-c2ccccc2)n1 [Example 15, N-(2-methyl-4-phenylpyrimidin-5-yl)-3-(1-methyl-1H-pyrazol-3-yl)-4-(trifluoromethyl)benzamide] | 3
Cc1ncc(NC(=O)c2ccc(C(F)(F)F)c(-n3nccn3)c2)c(-c2ccccc2)n1 [Example 16, N-(2-methyl-4-phenylpyrimidin-5-yl)-3-(2H-1,2,3-triazol-2-yl)-4-(trifluoromethyl)benzamide] | 66
Cc1ccn(-c2cc(C(=O)Nc3cnc(C)nc3-c3ccccc3)ccc2C(F)(F)F)n1 [Example 17, N-(2-methyl-4-phenylpyrimidin-5-yl)-3-(3-methyl-1H-pyrazol-1-yl)-4-(trifluoromethyl)benzamide] | 15
Cc1cc(-c2nc(C)ncc2NC(=O)c2ccc(C(F)(F)F)c(-c3nc(C)cs3)c2)[nH]n1 [Example 18, N-[2-methyl-4-(3-methyl-1H-pyrazol-5-yl)pyrimidin-5-yl]-3-(4-methyl-1,3-thiazol-2-yl)-4-(trifluoromethyl)benzamide] | 330
Cc1cnn(-c2ccncc2NC(=O)c2ccc(C(F)(F)F)c(-c3ccn(C)n3)c2)c1 [Example 19, 3-(1-methyl-1H-pyrazol-3-yl)-N-[4-(4-methyl-1H-pyrazol-1-yl)pyridin-3-yl]-4-(trifluoromethyl)benzamide] | 25
Cc1ncc(NC(=O)c2ccc(C(F)(F)F)c(-c3ncco3)c2)c(-c2ccccc2)n1 [Example 20, N-(2-methyl-4-phenylpyrimidin-5-yl)-3-(1,3-oxazol-2-yl)-4-(trifluoromethyl)benzamide] | 15
Cc1ncc(NC(=O)c2ccc(C(F)(F)F)c(-c3cc[nH]n3)c2)c(-c2ccccc2)n1 [Example 21, N-(2-methyl-4-phenylpyrimidin-5-yl)-3-(1H-pyrazol-3-yl)-4-(trifluoromethyl)benzamide] | 35
Cn1ccc(-c2cc(C(=O)Nc3ncccc3-c3ccccc3)ccc2C(F)(F)F)n1 [Example 22, 3-(1-methyl-1H-pyrazol-3-yl)-N-(3-phenylpyridin-2-yl)-4-(trifluoromethyl)benzamide] | 64
Cc1ncc(NC(=O)c2cc(-c3ccn(C)n3)c(C(F)(F)F)cc2Cl)c(-c2ccccc2)n1 [Example 23, 2-chloro-N-(2-methyl-4-phenylpyrimidin-5-yl)-5-(1-methyl-1H-pyrazol-3-yl)-4-(trifluoromethyl)benzamide] | 1.1
Cn1ccc(-c2cc(C(=O)Nc3nccnc3-c3ccccc3)ccc2C(F)(F)F)n1 [Example 25, 3-(1-methyl-1H-pyrazol-3-yl)-N-(3-phenylpyrazin-2-yl)-4-(trifluoromethyl)benzamide] | 83
Cc1nc(C)c(NC(=O)c2ccc(C(F)(F)F)c(-c3ccn(C)n3)c2)c(-c2ccccc2)n1 [Example 26, N-(2,4-dimethyl-6-phenylpyrimidin-5-yl)-3-(1-methyl-1H-pyrazol-3-yl)-4-(trifluoromethyl)benzamide] | 210
Cc1ncc(NC(=O)c2cc(-c3ncccn3)c(C(F)(F)F)cc2F)c(-c2ccccc2)n1 [Example 28, 2-fluoro-N-(2-methyl-4-phenylpyrimidin-5-yl)-5-pyrimidin-2-yl-4-(trifluoromethyl)benzamide] | 9.6
Cc1coc(-c2cc(C(=O)Nc3cnc(C)nc3-c3ccccc3)ccc2C(F)(F)F)n1 [Example 29, 3-(4-methyl-1,3-oxazol-2-yl)-N-(2-methyl-4-phenylpyrimidin-5-yl)-4-(trifluoromethyl)benzamide] | 4
Cc1noc(-c2cc(C(=O)Nc3cnc(C)nc3-c3ccccc3)ccc2C(F)(F)F)n1 [Example 30, 3-(3-methyl-1,2,4-oxadiazol-5-yl)-N-(2-methyl-4-phenylpyrimidin-5-yl)-4-(trifluoromethyl)benzamide] | 130
Cc1ncc(NC(=O)c2ccc(C(F)(F)F)c(-c3ccn(C)n3)c2)c(-c2ccc(F)cc2)n1 [Example 31, N-[4-(4-fluorophenyl)-2-methylpyrimidin-5-yl]-3-(1-methyl-1H-pyrazol-3-yl)-4-(trifluoromethyl)benzamide] | 5.5
Cc1cccc(-c2nc(C)ncc2NC(=O)c2ccc(C(F)(F)F)c(-c3ccn(C)n3)c2)c1 [Example 32, N-[2-methyl-4-(3-methylphenyl)pyrimidin-5-yl]-3-(1-methyl-1H-pyrazol-3-yl)-4-(trifluoromethyl)benzamide] | 8.3
Cc1ncc(NC(=O)c2cc(C3CCC(C)O3)c(C(F)(F)F)cc2F)c(-c2ccccc2)n1 (stereo not drawn) [Example 33, 2-fluoro-N-(2-methyl-4-phenylpyrimidin-5-yl)-5-(5-methyltetrahydrofuran-2-yl)-4-(trifluoromethyl)benzamide] | 56
Cn1ccc(-c2cc(C(=O)Nc3cnc(CC#N)nc3-c3ccccc3)c(F)cc2C(F)(F)F)n1 [Example 34, N-(2-(cyanomethyl)-4-phenylpyrimidin-5-yl)-2-fluoro-5-(1-methyl-1H-pyrazol-3-yl)-4-(trifluoromethyl)benzamide] | 0.69
Cn1ccc(-c2cc(C(=O)Nc3cnc(CO)nc3-c3ccccc3)ccc2C(F)(F)F)n1 [Example 35, N-(2-(Hydroxymethyl)-4-phenylpyrimidin-5-yl)-3-(1-methyl-1H-pyrazol-3-yl)-4-(trifluoromethyl)benzamide] | 7.3
O=C(Nc1cnc(CO)nc1-c1ccccc1)c1ccc(C(F)(F)F)c(-c2cc[nH]n2)c1 [Example 36, N-(2-(hydroxymethyl)-4-phenylpyrimidin-5-yl)-3-(1H-pyrazol-3-yl)-4-(trifluoromethyl)benzamide] | 24
Cn1ccc(-c2cc(C(=O)Nc3cnc(CCO)nc3-c3ccccc3)ccc2C(F)(F)F)n1 [Example 37, N-(2-(2-hydroxyethyl)-4-phenylpyrimidin-5-yl)-3-(1-methyl-1H-pyrazol-3-yl)-4-(trifluoromethyl)benzamide] | 4
